Measurements: PubChem BioAssay (NCI)
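GI50 is the concentration that inhibits growth by half. TGI marks complete inhibition of growth.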

Key:
Assay in all cases: inhibition of tumour cell growth, NCI panel, 384-well format
[1] = system: HCT-15 colon
[2] = system: MDA-MB-231 breast
[3] = system: HCC-2998 colon
[4] = system: MALME-3M melanoma
[5] = system: NCI-H460 NSCLC
[6] = system: SN12C renal
[7] = system: TK-10 renal
[8] = system: NCI/ADR-RES ovarian
[9] = system: MOLT-4 leukemia
[10] = system: CCRF-CEM leukemia
[11] = system: U251 glioblastoma
[12] = system: SW-620 colon
[13] = system: A498 renal
[14] = system: SF-268 CNS
[15] = system: K-562 leukemia
[16] = system: HT29 colon
[17] = system: SF-539 CNS
[18] = system: SR leukemia
[19] = system: DU-145 prostate
[20] = system: OVCAR-4 ovarian
[21] = system: CAKI-1 renal
[22] = system: LOX IMVI melanoma
[23] = system: SK-MEL-5 melanoma
[24] = system: MDA-MB-468 breast
[25] = system: A549 NSCLC
[26] = system: MCF7 breast
[27] = system: SF-295 CNS
[28] = system: M14 melanoma
[29] = system: T-47D breast
[30] = system: 786-0 renal
[31] = system: SK-MEL-2 melanoma
[32] = system: KM12 colon
[33] = system: OVCAR-5 ovarian
[34] = system: UACC-257 melanoma
[35] = system: NCI-H226 lung
[36] = system: OVCAR-3 ovarian
[37] = system: SK-OV-3 ovarian
[38] = system: COLO 205 colon
[39] = system: SNB-19 CNS
[40] = system: MDA-MB-435 melanoma
[41] = system: NCI-H23 lung
[42] = system: NCI-H522 lung
[43] = system: NCI-H322M lung
[44] = system: OVCAR-8 ovarian
[45] = system: SK-MEL-28 melanoma
[46] = system: UO-31 renal
[47] = system: RPMI-8226 leukemia
[48] = system: UACC-62 melanoma
[49] = system: ACHN renal
[50] = system: HOP-62 NSCLC
[51] = system: HL-60(TB) leukemia
[52] = system: RXF 393 renal
[53] = system: BT-549 breast
[54] = system: PC-3 prostate
[55] = system: IGROV1 ovarian

SMILES: CN(C)C/C=C/C(=O)Nc1ccc(C(=O)Nc2cccc(Nc3ncc(Cl)c(-c4c[nH]c5ccccc45)n3)c2)cc1
- GI50 [1]: 0.0451 µM
- TGI [1]: 0.213 µM
- GI50 [2]: < 0.01 µM
- TGI [2]: 0.0448 µM
- GI50 [3]: < 0.01 µM
- TGI [3]: 0.0206 µM
- GI50 [4]: 0.0147 µM
- TGI [4]: 0.0299 µM
- GI50 [5]: 0.0173 µM
- TGI [5]: 0.0372 µM
- GI50 [6]: 0.0103 µM
- TGI [6]: 0.0294 µM
- GI50 [7]: 0.0218 µM
- TGI [7]: 0.0559 µM
- GI50 [8]: 0.525 µM
- TGI [8]: 12.2 µM
- GI50 [9]: < 0.01 µM
- TGI [9]: 0.0124 µM
- GI50 [10]: < 0.01 µM
- TGI [10]: < 0.01 µM
- GI50 [11]: < 0.01 µM
- TGI [11]: 0.0274 µM
- GI50 [12]: < 0.01 µM
- TGI [12]: 0.042 µM
- GI50 [13]: 0.0172 µM
- TGI [13]: 0.0559 µM
- GI50 [14]: < 0.01 µM
- TGI [14]: 0.0174 µM
- GI50 [15]: < 0.01 µM
- TGI [15]: 0.103 µM
- GI50 [16]: 0.02 µM
- TGI [16]: 0.0475 µM
- GI50 [17]: < 0.01 µM
- TGI [17]: 0.0195 µM
- GI50 [18]: < 0.01 µM
- TGI [18]: < 0.01 µM
- GI50 [19]: 0.0162 µM
- TGI [19]: 0.0602 µM
- GI50 [20]: < 0.01 µM
- TGI [20]: 0.0254 µM
- GI50 [21]: 0.0142 µM
- TGI [21]: 0.0469 µM
- GI50 [22]: < 0.01 µM
- TGI [22]: 0.0282 µM
- GI50 [23]: < 0.01 µM
- TGI [23]: 0.0207 µM
- GI50 [24]: < 0.01 µM
- TGI [24]: 0.0144 µM
- GI50 [25]: 0.0311 µM
- TGI [25]: 0.11 µM
- GI50 [26]: < 0.01 µM
- TGI [26]: 0.166 µM
- GI50 [27]: 0.0314 µM
- TGI [27]: 0.0994 µM
- GI50 [28]: 0.0145 µM
- TGI [28]: 0.0295 µM
- GI50 [29]: 0.0142 µM
- TGI [29]: 0.0733 µM
- GI50 [30]: 0.0239 µM
- TGI [30]: 0.0833 µM
- GI50 [31]: < 0.01 µM
- TGI [31]: 0.0133 µM
- GI50 [32]: 0.0177 µM
- TGI [32]: 0.0411 µM
- GI50 [33]: 0.0214 µM
- TGI [33]: 1.2 µM
- GI50 [34]: < 0.01 µM
- TGI [34]: 0.0213 µM
- GI50 [35]: 0.0124 µM
- TGI [35]: 0.0336 µM
- GI50 [36]: < 0.01 µM
- TGI [36]: 0.011 µM
- GI50 [37]: 0.0114 µM
- TGI [37]: 0.0459 µM
- GI50 [38]: < 0.01 µM
- TGI [38]: 0.0134 µM
- GI50 [39]: 0.0201 µM
- TGI [39]: 0.174 µM
- GI50 [40]: 0.0133 µM
- TGI [40]: 0.0354 µM
- GI50 [41]: 0.0106 µM
- TGI [41]: 0.0254 µM
- GI50 [42]: < 0.01 µM
- TGI [42]: < 0.01 µM
- GI50 [43]: 0.0209 µM
- TGI [43]: 0.0495 µM
- GI50 [44]: 0.0165 µM
- TGI [44]: 0.0398 µM
- GI50 [45]: < 0.01 µM
- TGI [45]: 0.0152 µM
- GI50 [46]: 0.105 µM
- TGI [46]: 0.372 µM
- GI50 [47]: 0.0137 µM
- TGI [47]: 0.0268 µM
- GI50 [48]: < 0.01 µM
- TGI [48]: 0.0187 µM
- GI50 [49]: 0.0205 µM
- TGI [49]: 0.083 µM
- GI50 [50]: 0.0158 µM
- TGI [50]: 0.0479 µM
- GI50 [51]: < 0.01 µM
- TGI [51]: < 0.01 µM
- GI50 [52]: < 0.01 µM
- TGI [52]: < 0.01 µM
- GI50 [53]: < 0.01 µM
- TGI [53]: 0.0137 µM
- GI50 [54]: 0.0206 µM
- TGI [54]: 0.0545 µM
- GI50 [55]: 0.0125 µM
- TGI [55]: 0.0519 µM
